From BindingDB's records for doi:10.1016/j.bmcl.2008.05.016 (Astrazeneca R&D Boston, 2008)

Assay: Inhibition of Cdk1

| Structure (SMILES) | IC50 [µM] |
| --- | --- |
| NC(=O)Nc1sc(-c2ccc(F)cc2)cc1C(=O)N[C@H]1CCCNC1 [(S)-1-(5-(4-fluorophenyl)-3-(piperidin-3-ylcarbamoyl)thiophen-2-yl)urea] | 3.3 |
| CCN(CC)CCOc1ccc(-c2cc(C(=O)NC3CCNCC3)c(NC(N)=O)s2)cc1 [1-(5-(4-(2-(diethylamino)ethoxy)phenyl)-3-(piperidin-4-ylcarbamoyl)thiophen-2-yl)urea] | > 69 |
| Cc1ccc(-c2cc(C(=O)N[C@H]3CCCNC3)c(NC(N)=O)s2)cc1 [(S)-1-(3-(piperidin-3-ylcarbamoyl)-5-p-tolylthiophen-2-yl)urea] | 5.5 |
| NC(=O)Nc1sc(-c2ccc(C(=O)N3CCCCC3)cc2)cc1C(=O)N[C@H]1CCCNC1 [(S)-1-(3-(piperidin-3-ylcarbamoyl)-5-(4-(piperidine-1-carbonyl)phenyl)thiophen-2-yl)urea] | 10.8 |
| NC(=O)Nc1sc(-c2ccncc2)cc1C(=O)N[C@H]1CCCNC1 [(S)-1-(3-(piperidin-3-ylcarbamoyl)-5-(pyridin-4-yl)thiophen-2-yl)urea] | 1.8 |
| CCN(CC)CCOc1ccc(-c2cc(C(=O)NC3CCNC3)c(NC(N)=O)s2)cc1 (configuration not stated) [1-(5-(4-(2-(diethylamino)ethoxy)phenyl)-3-(pyrrolidin-3-ylcarbamoyl)thiophen-2-yl)urea] | > 100 |
| CN(C)c1ccc(-c2cc(C(=O)N[C@H]3CCCNC3)c(NC(N)=O)s2)cc1 [(S)-1-(5-(4-(dimethylamino)phenyl)-3-(piperidin-3-ylcarbamoyl)thiophen-2-yl)urea] | 8.4 |
| NC(=O)Nc1sc(-c2cccc(Cl)c2)cc1C(=O)N[C@H]1CCCNC1 [1-(3-((S)-piperidin-3-ylcarbamoyl)-5-(3-chlorophenyl)thiophen-2-yl)urea] | 8.8 |
| CCN(CC)CCOc1ccc(-c2cc(C(=O)Nc3cccnc3)c(NC(N)=O)s2)cc1 [1-(5-(4-(2-(diethylamino)ethoxy)phenyl)-3-(pyridin-3-ylcarbamoyl)thiophen-2-yl)urea] | 44 |
| NC(=O)Nc1sc(-c2cccc(F)c2)cc1C(=O)N[C@H]1CCCNC1 [1-(3-((S)-piperidin-3-ylcarbamoyl)-5-(3-fluorophenyl)thiophen-2-yl)urea] | 5.6 |
| CS(=O)(=O)c1ccc(-c2cc(C(=O)N[C@H]3CCCNC3)c(NC(N)=O)s2)cc1 [(S)-1-(5-(4-(methylsulfonyl)phenyl)-3-(piperidin-3-ylcarbamoyl)thiophen-2-yl)urea] | 2.2 |
| CN(C)C(=O)c1ccc(-c2cc(C(=O)N[C@H]3CCCNC3)c(NC(N)=O)s2)cc1 [(S)-1-(5-(4-(dimethylcarbamoyl)phenyl)-3-(piperidin-3-ylcarbamoyl)thiophen-2-yl)urea] | 3.7 |
